Measurements from patent publication US9765105B2, “Macrolide compound” (Pulike Biological Engineering, Inc., priority 2013, dated 2017).

Assays:
Assay in all cases: in vitro susceptibility, MIC by mini broth dilution
Format in all cases: cell-based
[1] = system: Staphylococcus aureus CVCC26003; settings: strain CVCC26003
Outline: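 MICs were determined by mini broth dilution under NCCLS standards in CAMHB, using revived S. aureus CVCC26003 subcultured 20 h at 35° C. Compounds were two-fold serially diluted in DMSO across 11 wells, with duplicate rows. Bacterial suspension was diluted 1:200 in medium before inoculation.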

[2] = system: Streptococcus equines CVCC556; settings: strain CVCC556
Outline: (§1)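 Following the NCCLS standard, each compound is serially halved in DMSO to give 11 concentrations, run in duplicate alongside a control well. Inocula come from colonies grown 20 h at 35° C and are diluted 1:200 into broth; MIC is taken by mini broth dilution.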

Haemophilus parasuis = system: Haemophilus parasuis
Outline: as §1

[3] = system: Pasteurella multocida CVCC399; settings: strain CVCC399
Outline: as §1

[4] = system: Actinobacillus pleuropneumoniae CVCC262; settings: strain CVCC262
Outline: as §1

SMILES	MIC values, Staphylococcus aureus CVCC26003 [1] [ug/mi]	MIC values, Streptococcus equines CVCC556 [2]	MIC values, Haemophilus parasuis (Haemophilus parasuis)	MIC values, Pasteurella multocida CVCC399 [3] [ug/mi]	MIC values, Actinobacillus pleuropneumoniae CVCC262 [4] [ug/mi]
CCCN1C[C@H](C)[C@@H](O)[C@](C)(O)[C@@H](CC)OC(=O)[C@H](C)[C@@H](O[C@H]2C[C@@](C)(OC)[C@](O)(CNCCCO)[C@H](C)O2)[C@H](C)[C@@H](O[C@@H]2O[C@H](C)C[C@H](N(C)C)[C@H]2O)[C@](C)(O)C[C@H]1C [syzx-146]	0.25	0.25 ug/mi	0.25 ug/mi	0.5	0.25
CCCN1C[C@H](C)[C@@H](O)[C@](C)(O)[C@@H](CC)OC(=O)[C@H](C)[C@@H](O[C@H]2C[C@@](C)(OC)[C@](O)(CNCc3cccc(OC)c3)[C@H](C)O2)[C@H](C)[C@@H](O[C@@H]2O[C@H](C)C[C@H](N(C)C)[C@H]2O)[C@](C)(O)C[C@H]1C [syzx-127]	4	0.25 ug/mi	1 ug/mi	8	1
CC[C@H]1OC(=O)[C@H](C)[C@@H](O[C@H]2C[C@@](C)(OC)[C@](O)(CNCCNC)[C@H](C)O2)[C@H](C)[C@@H](O[C@@H]2O[C@H](C)C[C@H](N(C)C)[C@H]2O)[C@](C)(O)C[C@@H](C)NC[C@H](C)[C@@H](O)[C@]1(C)O [syzx-29]	1	0.5 ug/mi	0.5 ug/mi	2	16
CCCCCNC[C@]1(O)[C@H](C)O[C@@H](O[C@H]2[C@H](C)[C@@H](O[C@@H]3O[C@H](C)C[C@H](N(C)C)[C@H]3O)[C@](C)(O)C[C@@H](C)N(CCC)C[C@H](C)[C@@H](O)[C@](C)(O)[C@@H](CC)OC(=O)[C@@H]2C)C[C@@]1(C)OC [syzx-147]	0.25	0.25 ug/mi	0.25 ug/mi	0.5	0.25
CCCN1C[C@H](C)[C@@H](O)[C@](C)(O)[C@@H](CC)OC(=O)[C@H](C)[C@@H](O[C@H]2C[C@@](C)(OC)[C@](O)(CNCc3cc(F)cc(F)c3)[C@H](C)O2)[C@H](C)[C@@H](O[C@@H]2O[C@H](C)C[C@H](N(C)C)[C@H]2O)[C@](C)(O)C[C@H]1C [syzx-155]	0.25	0.25 ug/mi	0.25 ug/mi	0.5	0.25
CC[C@H]1OC(=O)[C@H](C)[C@@H](O[C@H]2C[C@@](C)(OC)[C@](O)(CNc3ccc(OC)cc3)[C@H](C)O2)[C@H](C)[C@@H](O[C@@H]2O[C@H](C)C[C@H](N(C)C)[C@H]2O)[C@](C)(O)C[C@@H](C)NC[C@H](C)[C@@H](O)[C@]1(C)O [syzx-83, (2R,3S,4R,5S,8R,10R,11R,12S,13S,14R)-13-[(2,6-dideoxy-3-C-methyl-3-O-methyl-4-C-[(p-methoxyphenyl-amino)-methyl]-α-L-ribopyranosyl)oxy]-2-ethyl-3,4,10-trihydroxy-3,5,8,10,12,14-hexamethyl-11-[[3,4,6-trideoxy-3-(dimethylamino)-β-D-xylo-hexopyranosy]oxy]-1-oxa-7-azacyclopentadecan-15-one]	0.5	0.5 ug/mi	0.25 ug/mi	0.25	2
CCCN1C[C@H](C)[C@@H](O)[C@](C)(O)[C@@H](CC)OC(=O)[C@H](C)[C@@H](O[C@H]2C[C@@](C)(OC)[C@](O)(CNCC3CC3)[C@H](C)O2)[C@H](C)[C@@H](O[C@@H]2O[C@H](C)C[C@H](N(C)C)[C@H]2O)[C@](C)(O)C[C@H]1C [syzx-117]	0.25	0.25 ug/mi	0.25 ug/mi	0.5	0.25
CCCN1C[C@H](C)[C@@H](O)[C@](C)(O)[C@@H](CC)OC(=O)[C@H](C)[C@@H](O[C@H]2C[C@@](C)(OC)[C@](O)(CNCCCCl)[C@H](C)O2)[C@H](C)[C@@H](O[C@@H]2O[C@H](C)C[C@H](N(C)C)[C@H]2O)[C@](C)(O)C[C@H]1C [syzx-175]	0.5	0.5 ug/mi	0.25 ug/mi	0.5	0.25
CCCN1C[C@H](C)[C@@H](O)[C@](C)(O)[C@@H](CC)OC(=O)[C@H](C)[C@@H](O[C@H]2C[C@@](C)(OC)[C@](O)(CNCCc3ccncc3)[C@H](C)O2)[C@H](C)[C@@H](O[C@@H]2O[C@H](C)C[C@H](N(C)C)[C@H]2O)[C@](C)(O)C[C@H]1C [syzx-164]	0.25	0.5 ug/mi	0.25 ug/mi	2	0.25
CCCN1C[C@H](C)[C@@H](O)[C@](C)(O)[C@@H](CC)OC(=O)[C@H](C)[C@@H](O[C@H]2C[C@@](C)(OC)[C@](O)(CNCCCC(=O)O)[C@H](C)O2)[C@H](C)[C@@H](O[C@@H]2O[C@H](C)C[C@H](N(C)C)[C@H]2O)[C@](C)(O)C[C@H]1C [syzx-142]	0.25	0.5 ug/mi	0.25 ug/mi	0.5	0.25
CC[C@H]1OC(=O)[C@H](C)[C@@H](O[C@H]2C[C@@](C)(OC)[C@](O)(CNC(=O)C(F)(F)F)[C@H](C)O2)[C@H](C)[C@@H](O[C@@H]2O[C@H](C)C[C@H](N(C)C)[C@H]2O)[C@](C)(O)C[C@@H](C)NC[C@H](C)[C@@H](O)[C@]1(C)O [syzx-37, (2R,3S,4R,5S,8R,10R,11R,12S,13S,14R)-13-[(2,6-dideoxy-3-C-methyl-3-O-methyl-4-C-[[2,2,2-trifluoroacetyl-amino]-methyl]-α-L-ribopyranosyl)oxy]-2-ethyl-3,4,10-trihydroxy-3,5,8,10,12,14-hexamethyl-11-[[3,4,6-trideoxy-3-(dimethylamino)-β-D-xylo-hexopyranosy]oxy]-1-oxa-7-azacyclopentadecan-15-one]	0.5	≦0.25 ug/mi	0.5 ug/mi	1	32
CCOCCCNCC1(O)C(C)OC(OC2C(C)C(=O)OC(CC)C(C)(O)C(O)C(C)CNC(C)CC(C)(O)C(OC3OC(C)CC(N(C)C)C3O)C2C)CC1(C)OC [syzx-22, (2R,3S,4R,5S,8R,10R,11R,12S,13S,14R)-13-[(2,6-dideoxy-3-C-methyl-3-O-methyl-4-C-[(3-ethoxypropyl)amino)methyl]-α-L-ribopyranosyl)oxy]-2-ethyl-3,4,10-trihydroxy-3,5,8,10,12,14-hexamethyl-11-[[3,4,6-trideoxy-3-(dimethylamino)-β-D-xylo-hexopyranosy]oxy]-1-oxa-7-azacyclopentadecan-15-one]	1	0.5 ug/mi	≦0.25 ug/mi	0.5	8
CC[C@H]1OC(=O)[C@H](C)[C@@H](O[C@H]2C[C@@](C)(OC)[C@](O)(CNc3ccnc(Cl)c3)[C@H](C)O2)[C@H](C)[C@@H](O[C@@H]2O[C@H](C)C[C@H](N(C)C)[C@H]2O)[C@](C)(O)C[C@@H](C)NC[C@H](C)[C@@H](O)[C@]1(C)O [syzx-38]	1	0.5 ug/mi	0.5 ug/mi	0.5	32
CCCN1C[C@H](C)[C@@H](O)[C@](C)(O)[C@@H](CC)OC(=O)[C@H](C)[C@@H](O[C@H]2C[C@@](C)(OC)[C@](O)(CNCCOC)[C@H](C)O2)[C@H](C)[C@@H](O[C@@H]2O[C@H](C)C[C@H](N(C)C)[C@H]2O)[C@](C)(O)C[C@H]1C [syzx-125]	1	0.25 ug/mi	0.5 ug/mi	2	0.5
CCCN1C[C@H](C)[C@@H](O)[C@](C)(O)[C@@H](CC)OC(=O)[C@H](C)[C@@H](O[C@H]2C[C@@](C)(OC)[C@](O)(CNCc3ccccc3F)[C@H](C)O2)[C@H](C)[C@@H](O[C@@H]2O[C@H](C)C[C@H](N(C)C)[C@H]2O)[C@](C)(O)C[C@H]1C [syzx-192]	4	0.5 ug/mi	4 ug/mi	4	4
